These compounds were tested against T1, recombinant full-length human prolyl endopeptidase (PREP) (Homo sapiens, UniProt P48147) (assay: Biochemical human prolyl endopeptidase (PREP) assay with fluorescently labelled substrate). Settings: substrate Z-Gly-Pro-AMC 50 μM, 32° C., 60 min; some as mean values from multiple independent determinations.
T1 construct: To recombinant full-length human prolyl endopeptidase (PREP, R&D-Systems, 4308-SE); purchased R&D-Systems 4308-SE
T1 sequence (P48147 1-710): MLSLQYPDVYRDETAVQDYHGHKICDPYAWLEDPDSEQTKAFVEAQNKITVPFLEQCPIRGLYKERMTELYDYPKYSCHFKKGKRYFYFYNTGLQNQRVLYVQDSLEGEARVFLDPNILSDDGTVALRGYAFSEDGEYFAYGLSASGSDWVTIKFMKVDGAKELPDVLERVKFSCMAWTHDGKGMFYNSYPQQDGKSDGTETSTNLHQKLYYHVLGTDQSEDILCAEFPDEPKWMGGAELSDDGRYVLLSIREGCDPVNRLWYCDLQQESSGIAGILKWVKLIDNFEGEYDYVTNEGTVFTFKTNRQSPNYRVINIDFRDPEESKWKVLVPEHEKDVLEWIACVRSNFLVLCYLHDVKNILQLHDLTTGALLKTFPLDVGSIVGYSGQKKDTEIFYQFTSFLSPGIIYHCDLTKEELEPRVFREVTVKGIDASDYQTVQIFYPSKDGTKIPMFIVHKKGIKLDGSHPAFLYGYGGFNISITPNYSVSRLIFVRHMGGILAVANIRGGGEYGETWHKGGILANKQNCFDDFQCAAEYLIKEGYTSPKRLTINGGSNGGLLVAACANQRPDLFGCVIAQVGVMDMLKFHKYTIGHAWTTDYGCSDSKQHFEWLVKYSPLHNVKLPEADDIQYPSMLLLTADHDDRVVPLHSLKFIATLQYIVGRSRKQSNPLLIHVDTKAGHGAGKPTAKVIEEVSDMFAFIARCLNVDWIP
Method in brief: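 Initial rates of fluorescence increase from 50 μM Z-Gly-Pro-AMC cleavage (ex 360/em 465 nm, 60 min, 32° C) give percent PREP activity versus no-compound control, and IC50 is interpolated. Enzyme used at 0.4 nM (final, example) in Tris pH 7.5 with EDTA, GSH, BSA and Brij-35; compounds span 1 nM to 30 μM.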

| SMILES | IC50 [nM] |
| --- | --- |
| O=C([C@@H]1CCCc2nn(Cc3cncc(Cl)c3)c(=O)n21)N1CC(F)C(F)C1 (mixture of isomers) [Example 548, (5S)-2-[(5-Chloropyridin-3-yl)methyl]-5-{[trans-3,4-difluoropyrrolidin-1-yl]carbonyl}-5,6,7,8-tetrahydro[1,2,4]triazolo[4,3-a]pyridin-3(2H)-one] | 31 |
| O=C([C@@H]1CCCc2nn(Cc3ccc(Cl)nc3)c(=O)n21)N1CC(F)C(F)C1 (mixture of isomers) [Example 550, (5S)-2-[(6-Chloropyridin-3-yl)methyl]-5-{[trans-3,4-difluoropyrrolidin-1-yl]carbonyl}-5,6,7,8-tetrahydro[1,2,4]triazolo[4,3-a]pyridin-3(2H)-one] | 18 |
| O=C(C1CCCc2nn(Cc3ccc(Cl)nc3)c(=O)n21)N1CC[C@H](F)C1 (mixture of isomers) [Example 561, (5RS)-2-[(6-Chlorpyridin-3-yl)methyl]-5-{[(3S)-3-fluorpyrrolidin-1-yl]carbonyl}-5,6,7,8-tetrahydro[1,2,4]triazolo[4,3-a]pyridin-3(2H)-on] | 0.37 |
| O=C(C1CC(C(F)(F)F)Cc2nn(Cc3ncc(C(F)(F)F)cc3Cl)c(=O)n21)N1CC[C@H](F)C1 (mixture of isomers) [Example 562, (5RS,7RS)-2-{[3-Chloro-5-(trifluoromethyl)pyridin-2-yl]methyl}-5-{[(3S)-3-fluoropyrrolidin-1-yl]carbonyl}-7-(trifluoromethyl)-5,6,7,8-tetrahydro[1,2,4]triazolo[4,3-a]pyridin-3(2H)-one] | 1.33 |
| O=C(C1CC(C(F)(F)F)Cc2nn(Cc3ncc(C(F)(F)F)cc3Cl)c(=O)n21)N1CCC(F)(F)C1 (racemic) [Example 564, (5RS,7RS)-2-{[3-Chloro-5-(trifluoromethyl)pyridin-2-yl]methyl}-5-[(3,3-difluoropyrolidin-1-yl)carbonyl]-7-(trifluoromethyl)-5,6,7,8-tetrahydro[1,2,4]triazolo[4,3-a]pyridin-3(2H)-one] | 4.4 |
| O=C(C1CC(C(F)(F)F)Cc2nn(Cc3ccc(Cl)cn3)c(=O)n21)N1CCC(F)(F)C1 (racemic) [Example 566, (5RS,7RS)-2-[(5-Chloropyridin-2-yl)methyl]-5-[(3,3-difluoropyrrolidin-1-yl)carbonyl]-7-(trifluoromethyl)-5,6,7,8-tetrahydro[1,2,4]triazolo[4,3-a]pyridin-3(2H)-one] | 4.1 |
| O=C(C1CC(C(F)(F)F)Cc2nn(Cc3ncc(F)cc3F)c(=O)n21)N1CC[C@H](F)C1 (mixture of isomers) [Example 569, (5RS,7RS)-2-[(3,5-Difluoropyridin-2-yl)methyl]-5-{[(3S)-3-fluoropyrrolidin-1-yl]carbonyl}-7-(trifluoromethyl)-5,6,7,8-tetrahydro[1,2,4]triazolo[4,3-a]pyridin-3(2H)-one] | 0.85 |
| O=C(C1CC(C(F)(F)F)Cc2nn(Cc3ncc(F)cc3Cl)c(=O)n21)N1CC[C@H](F)C1 (mixture of isomers) [Example 571, (5RS,7RS)-2-[(3-Chloro-5-fluoropyridin-2-yl)methyl]-5-{[(3S)-3-fluoropyrrolidin-1-yl]carbonyl}-7-(trifluoromethyl)-5,6,7,8-tetrahydro[1,2,4]triazolo[4,3-a]pyridin-3(2H)-one] | 1.1 |
| O=C(C1CC(C(F)(F)F)Cc2nn(Cc3ncc(F)cc3F)c(=O)n21)N1CCC(F)(F)C1 (racemic) [Example 573, (5RS,7RS)-2-[(3,5-Difluoropyridin-2-yl)methyl]-5-[(3,3-difluoropyrrolidin-1-yl)carbonyl]-7-(trifluoromethyl)-5,6,7,8-tetrahydro[1,2,4]triazolo[4,3-a]pyridin-3(2H)-one] | 5.9 |
| O=C(C1CC(C(F)(F)F)Cc2nn(Cc3ncc(F)cc3Cl)c(=O)n21)N1CCC(F)(F)C1 (racemic) [Example 575, (5RS,7RS)-2-[(3-Chloro-5-fluoropyridin-2-yl)methyl]-5-[(3,3-difluoropyrrolidin-1-yl)carbonyl]-7-(trifluoromethyl)-5,6,7,8-tetrahydro[1,2,4]triazolo[4,3-a]pyridin-3(2H)-one] | 7.4 |
| O=C(C1CC(C(F)(F)F)Cc2nn(Cc3ccc(C(F)(F)F)nc3)c(=O)n21)N1CC(F)C(F)C1 (racemic) [Example 582, (5RS,7RS)-5-{[rel-(3R,4R)-3,4-Difluoropyrrolidin-1-yl]carbonyl}-7-(trifluoromethyl)-2-{[6-(trifluoromethyl)pyridin-3-yl]methyl}-5,6,7,8-tetrahydro[1,2,4]triazolo[4,3-a]pyridin-3(2H)-one] | 140 |
| CC(c1ccc(Cl)cc1)n1nc2n(c1=O)C(C(=O)N1CCCC1)CCC2 (single isomer, unassigned) [Example 4, (5RS)-2-[(1 RS)-1-(4-Chlorophenyl)ethyl]-5-(pyrrolidin-1-ylcarbonyl)-5,6,7,8-tetrahydro[1,2,4]triazolo[4,3-a]pyridin-3(2H)-one] | 2.2 |
| CC(c1ccc(Cl)cc1)n1nc2n(c1=O)C(C(=O)N1CCCC1)CCC2 (single isomer, unassigned) [Example 5, (5RS)-2-[(1 RS)-1-(4-Chlorophenyl)ethyl]-5-(pyrrolidin-1-ylcarbonyl)-5,6,7,8-tetrahydro[1,2,4]triazolo[4,3-a]pyridin-3(2H)-one] | 8 |
| O=C(C1CCCc2nn(Cc3ccc(Cl)nc3)c(=O)n21)N1CCCC1 (single isomer, unassigned) [Example 32, (5RS)-2-[(6-Chloropyridin-3-yl)methyl]-5-(pyrrolidin-1-ylcarbonyl)-5,6,7,8-tetrahydro[1,2,4]triazolo[4,3-a]pyridin-3(2H)-one] | 1.48 |
| O=C(C1CCCc2nn(Cc3ccc(Cl)cn3)c(=O)n21)N1CCCC1 (single isomer, unassigned) [Example 34, (5RS)-2-[(5-Chloropyridin-2-yl)methyl]-5-(pyrrolidin-1-ylcarbonyl)-5,6,7,8-tetrahydro[1,2,4]triazolo[4,3-a]pyridin-3(2H)-one] | 7.5 |
| O=C(C1CCCc2nn(Cc3ccc(C(F)(F)F)nc3)c(=O)n21)N1CCCC1 (single isomer, unassigned) [Example 85, (5RS)-5-(Pyrrolidin-1-ylcarbonyl)-2-{[6-(trifluoromethyl)pyridin-3-yl]methyl}-5,6,7,8-tetrahydro[1,2,4]triazolo[4,3-a]pyridin-3(2H)-one] | 2.1 |
| O=C(C1CCCc2nn(Cc3cccc(C(F)(F)F)c3)c(=O)n21)N1CC(O)C1 (single isomer, unassigned) [Example 98, (5RS)-5-[(3-Hydroxyazetidin-1-yl)carbonyl]-2-[3-(trifluoromethyl)benzyl]-5,6,7,8-tetrahydro[1,2,4]triazolo[4,3-a]pyridin-3(2H)-one] | 257 |
| Cc1nc(C)c(Cn2nc3n(c2=O)C(C(=O)N2CCCC2)CCC3)nc1C (single isomer, unassigned) [Example 104, (5RS)-5-(Pyrrolidin-1-ylcarbonyl)-2-[(3,5,6-trimethylpyrazin-2-yl)methyl]-5,6,7,8-tetrahydro[1,2,4]triazolo[4,3-a]pyridin-3(2H)-one] | 0.46 |
| O=C(C1CCCc2nn(Cc3cc(C(F)(F)F)c(Cl)cn3)c(=O)n21)N1CCCC1 (single isomer, unassigned) [Example 107] | 2.1 |
| Cc1ccc(Cn2nc3n(c2=O)C(C(=O)N2CC(F)(F)C2)CCC3)cc1 (single isomer, unassigned) [Example 115, (5RS)-5-[(3,3-Difluoroazetidin-1-yl)carbonyl]-2-(4-methylbenzyl)-5,6,7,8-tetrahydro[1,2,4]triazolo[4,3-a]pyridin-3(2H)-one] | 1.1 |
| Cc1ccc(Cn2nc3n(c2=O)C(C(=O)N2CC[C@H](O)C2)CCC3)cc1 (single isomer, unassigned) [Example 116] | 3 |
| Cc1ccc(Cn2nc3n(c2=O)C(C(=O)N2CCC(=O)C2)CCC3)cc1 (single isomer, unassigned) [Example 119, (5RS)-2-(4-Methylbenzyl)-5-[(3-oxopyrrolidin-1-yl)carbonyl]-5,6,7,8-tetrahydro[1,2,4]triazolo[4,3-a]pyridin-3(2H)-one] | 1.4 |
| Cc1ccc(Cn2nc3n(c2=O)C(C(=O)N2CC(O)C2)CCC3)cc1 (single isomer, unassigned) [Example 121, (5RS)-5-[(3-Hydroxyazetidin-1-yl)carbonyl]-2-(4-methylbenzyl)-5,6,7,8-tetrahydro[1,2,4]triazolo[4,3-a]pyridin-3(2H)-one] | 4.3 |
| Cc1ccc(Cn2nc3n(c2=O)C(C(=O)N2CCC4(C2)CC4(F)F)CCC3)cc1 (single isomer, unassigned) [Example 129, (5RS)-{[(3RS)-1,1-Difluoro-5-azaspiro[2.4]hept-5-yl]carbonyl}-2-(4-methylbenzyl)-5,6,7,8-tetrahydro[1,2,4]triazolo[4,3-a]pyridin-3(2H)-one] | 10 |

From patent publication US10722501B2 (BAYER AKTIENGESELLSCHAFT, priority 2016, dated 2020)
